In brackets after ≈: the same amount, converted by molar mass. Where two headings read alike, the source gives them in different places.
Assays:
[1] = test system: Methicillin-resistant S. aureus ATCC 33591; experiment: MIC by broth microdilution; conditions: Staphylococcus aureus, ATCC33591|MRSA, 24 h, read-out: Minimum inhibitory concentration MRSA^b
[2] = test system: Methicillin-resistant S. aureus ATCC 43300; experiment: MIC by broth microdilution; conditions: Staphylococcus aureus, ATCC43300|MRSA, 24 h, read-out: Minimum inhibitory concentration MRSA^c
S. aureus ATCC 29213 = experiment: MIC by broth microdilution; conditions: Staphylococcus aureus, ATCC29213, 24 h, read-out: Minimum inhibitory concentration S.a.^d
[3] = test system: Methicillin-resistant S. epidermidis ATCC 51625; experiment: MIC by broth microdilution; conditions: Staphylococcus epidermidis, ATCC51625|MRSE, 24 h, read-out: Minimum inhibitory concentration MRSE^e
A. baumannii ATCC 19606 = experiment: MIC by broth microdilution; conditions: Acinetobacter baumannii, ATCC19606, 24 h, read-out: Minimum inhibitory concentration A.b.^f
S. enterica ATCC14028 = experiment: MIC by broth microdilution; conditions: Salmonella enterica, ATCC14028, 24 h, read-out: Minimum inhibitory concentration S.e.^g
E. coli ATCC 25922 = experiment: MIC by broth microdilution; conditions: Escherichia coli, ATCC25922, 24 h, read-out: Minimum inhibitory concentration E.c.^h
E. coli CMCC 44103 = experiment: MIC by broth microdilution; conditions: Escherichia coli, CMCC44103, 24 h, read-out: Minimum inhibitory concentration E.c.^i
[4] = Solubility experiment (equilibrium solubility); conditions: thermodynamic from solid
[5] = test system: carbapenem-resistant Acinetobacter baumannii-882; experiment: MIC against clinical isolate; assay type: cell-based
Description: (§1) The Specific Steps are as Follows:

[6] = test system: methicillin-resistant Staphylococcus aureus-171; experiment: MIC against clinical isolate; assay type: cell-based
Description: as §1

[7] = test system: methicillin-resistant Staphylococcus aureus-206; experiment: MIC against clinical isolate; assay type: cell-based
Description: as §1

[8] = test system: methicillin-resistant Staphylococcus aureus-222; experiment: MIC against clinical isolate; assay type: cell-based; conditions: MRSA / MRSE
Description: as §1

[9] = test system: methicillin-resistant Staphylococcus aureus-575; experiment: MIC against clinical isolate; assay type: cell-based
Description: as §1

[10] = test system: methicillin-resistant Staphylococcus aureus-596; experiment: MIC against clinical isolate; assay type: cell-based
Description: as §1

[11] = test system: multidrug-resistant Klebsiella pneumoniae-893; experiment: MIC against clinical isolate; assay type: cell-based; conditions: clinical isolate MDR-KP-893
Description: as §1

[12] = test system: multidrug-resistant Pseudomonas aeruginosa-126; experiment: MIC against clinical isolate; assay type: cell-based
Description: as §1

[13] = test system: vancomycin-resistant Enterococcus-80; experiment: MIC against clinical isolate; assay type: cell-based
Description: as §1

HepG2 cells [14] = experiment: Cell Counting Kit-8 cytotoxicity; conditions: read-out: CC50 HepG2 Cells; CCK-8, 24 hours incubation
[15] = Cell Counting Kit-8 cytotoxicity; conditions: human
A549 cells [16] = experiment: Cell Counting Kit-8 cytotoxicity; conditions: read-out: CC50 A549 Cells; CCK-8, 24 hours incubation
[17] = test system: Gram-positive and Gram-negative bacteria; experiment: MIC, panel of TABLE 1 strains as summarised in text; conditions: comparison of MIC with positive control drugs
[18] = test system: HepG2 cells, HEK293 cells and A549 cells; experiment: Cell Counting Kit-8 cytotoxicity, all tested cells as summarised in text; conditions: at a concentration of 100 μM
[19] = test system: five clinical MRSA isolates, including MRSA-171, MRSA-575, MRSA-206, MRSA-222, and MRSA-596; experiment: MIC, five clinical MRSA isolates as summarised in text; assay type: cell-based, Staphylococcus aureus; conditions: MRSA-171, MRSA-575, MRSA-206, MRSA-222, MRSA-596
Description: as §1

physchem = conditions: thermodynamic from solid
[20] = Cell Counting Kit-8 cytotoxicity; conditions: human, HepG2 cells
HEK293 cells [21] = experiment: Cell Counting Kit-8 cytotoxicity; conditions: read-out: CC50 HEK293 Cells; CCK-8, 24 hours incubation
HepG2 cells [22] = conditions: human, 24 h
HEK293 cells [23] = conditions: human, 24 h
A549 cells [24] = conditions: human, 24 h

Structure (SMILES)	MIC [1] [µg/mL]	MIC [2] [µg/mL]	MIC (S. aureus ATCC 29213) [µg/mL]	MIC [3] [µg/mL]	MIC (A. baumannii ATCC 19606) [µg/mL]	MIC (S. enterica ATCC14028) [µg/mL]	MIC (E. coli ATCC 25922) [µg/mL]	MIC (E. coli CMCC 44103) [µg/mL]	Antibacterial activity (MIC) MDR-KP^i [11] [µg/mL]	CC50 (A549 cells [16]) [µM]	antibacterial activity compared to valnemulin and retapamulin (in words) [17]	toxicity to the tested cells (in words) [18]	solubility (physchem) [µM]	CC50 (HepG2 cells [22]) [µM]	CC50 (HEK293 cells [23]) [µM]	CC50 (A549 cells [24]) [µM]	further results
C=C[C@]1(C)C[C@@H](OC(=O)CSc2nc3cc[n+](Cc4ccc([N+](=O)[O-])cc4)cc3s2)[C@]2(C)[C@H](C)CC[C@]3(CCC(=O)[C@H]32)[C@@H](C)[C@@H]1O [Compound I-6, 5-(4-nitrobenzyl)-2-((2-(((3aR,4R,5R,7S,8S,9R,9aS,12R)-8-hydroxy-4,7,9,12-tetramethyl-3-oxo-7-vinyldecahydro-4,9a-propancyclopenta[8]cyclo-5-yl)oxy)-2-oxoethyl)thio)thiazolo[5,4-c]pyridin-5-ium]	16	4	32	16	16	16	8	32									solubility [4]: 887 µM
C=C[C@]1(C)C[C@@H](OC(=O)CSc2nc3cc[n+](Cc4ccc(C#N)cc4)cc3s2)[C@]2(C)[C@H](C)CC[C@]3(CCC(=O)[C@H]32)[C@@H](C)[C@@H]1O [Compound I-8, 5-(4-cyanobenzyl)-2-((2-(((3aR,4R,5R,7S,8S,9R,9aS,12R)-8-hydroxy-4,7,9,12-tetramethyl-3-oxo-7-vinyldecahydro-4,9a-propancyclopenta[8]cyclo-5-yl)oxy)-2-oxoethyl)thio)thiazolo[5,4-c]pyridin-5-ium]	1	1	0.5	2	1	2	1	2	16	> 100	good antibacterial activity	low toxicity					MIC ([5]; read-out: Antibacterial activity (MIC) CR-AB^j): 64 µg/mL; MIC ([6]; MRSA, read-out: Antibacterial activity (MIC) MRSA^b): 16 µg/mL; MIC ([7]; MRSA, read-out: Antibacterial activity (MIC) MRSA^d): 64 µg/mL; MIC ([8]; read-out: Antibacterial activity (MIC) MRSE^e): 16 µg/mL; MIC ([9]; MRSA, read-out: Antibacterial activity (MIC) MRSA^c): 32 µg/mL; MIC ([10]; MRSA, read-out: Antibacterial activity (MIC) MRSA^f): 8 µg/mL; MIC ([12]; read-out: Antibacterial activity (MIC) MDR-PA^h): 32 µg/mL; MIC ([13]; VRE, read-out: Antibacterial activity (MIC) VRE^g): 16 µg/mL; CC50 (HepG2 cells [14]): 78.5 µM; CC50 at 24 h [15]: 79.2 µM
C=C[C@]1(C)C[C@@H](OC(=O)CSc2nc3cc[n+](Cc4ccc(C)cc4)cc3s2)[C@]2(C)[C@H](C)CC[C@]3(CCC(=O)[C@H]32)[C@@H](C)[C@@H]1O [Compound I-9, 5-(4-methylbenzyl)-2-((2-(((3aR,4R,5R,7S,8S,9R,9aS,12R)-8-hydroxy-4,7,9,12-tetramethyl-3-oxo-7-vinyldecahydro-4,9a-propancyclopenta[8]cyclo-5-yl)oxy)-2-oxoethyl)thio)thiazolo[5,4-c]pyridin-5-ium]	0.25	0.25	0.125	0.25	0.5	0.25	0.25	0.125	2	> 100	most advantageous antibacterial activity	low toxicity	812				MIC ([5]; clinical isolate CR-AB-882, read-out: Antibacterial activity (MIC) CR-AB^j): 4 µg/mL; MIC ([6]; clinical isolate MRSA-171, read-out: Antibacterial activity (MIC) MRSA^b): 8 µg/mL; MIC ([7]; clinical isolate MRSA-206, read-out: Antibacterial activity (MIC) MRSA^d): 2 µg/mL; MIC ([8]; clinical isolate, footnote e: MRSA-222, read-out: Antibacterial activity (MIC) MRSE^e): 4 µg/mL; MIC ([9]; clinical isolate MRSA-575, read-out: Antibacterial activity (MIC) MRSA^c): 4 µg/mL; MIC ([10]; clinical isolate MRSA-596, read-out: Antibacterial activity (MIC) MRSA^f): 8 µg/mL; MIC ([12]; clinical isolate MDR-PA-126, read-out: Antibacterial activity (MIC) MDR-PA^h): 8 µg/mL; MIC ([13]; clinical isolate VRE-80, read-out: Antibacterial activity (MIC) VRE^g): 8 µg/mL; MIC, range over five clinical MRSA isolates [19]: 2 to 8 µg/mL; CC50 at 24 h [20]: 66.4 µM; CC50 (HEK293 cells [21]): 82.1 µM
C=C[C@]1(C)C[C@@H](OC(=O)CSc2nc3cc[n+](Cc4cc(OC)cc(OC)c4)cc3s2)[C@]2(C)[C@H](C)CC[C@]3(CCC(=O)[C@H]32)[C@@H](C)[C@@H]1O [Compound I-14, 5-(3,5-dimethoxybenzyl)-2-((2-(((3aR,4R,5R,7S,8S,9R,9aS,12R)-8-hydroxy-4,7,9,12-tetramethyl-3-oxo-7-vinyldecahydro-4,9a-propancyclopenta[8]cyclo-5-yl)oxy)-2-oxoethyl)thio)thiazolo[5,4-c]pyridin-5-ium]	32	32	64	64	32	64	32	64					126				
C=C[C@]1(C)C[C@@H](OC(=O)CS[C@@H]2C[C@H]3CC[C@@H](C2)N3C)[C@]2(C)[C@H](C)CC[C@]3(CCC(=O)[C@H]32)[C@@H](C)[C@@H]1O [Retapamulin, retapamulin, reference compound]			4 (≈ 7.73 µM)		4 (≈ 7.73 µM)	128 (≈ 247 µM)	32 (≈ 61.8 µM)	32 (≈ 61.8 µM)						61.1	57.5	71.5	
C=C[C@]1(C)C[C@@H](OC(=O)CSC(C)(C)CNC(=O)[C@H](N)C(C)C)[C@]2(C)[C@H](C)CC[C@]3(CCC(=O)[C@H]32)[C@@H](C)[C@@H]1O [Valnemulin, valnemulin, reference compound]			4 (≈ 7.08 µM)		2 (≈ 3.54 µM)	64 (≈ 113 µM)	16 (≈ 28.3 µM)	64 (≈ 113 µM)					386 (≈ 218 µg/mL)	77.3	65.4	53.7	

— patent US12304917B1, “Pleuromutilin derivative containing a thiazolo[5,4-c]pyridine side chain, and a preparation method and application thereof” (SHAANXI UNIVERSITY OF SCIENCE AND TECHNOLOGY, priority 2024, dated 2025)
